# In publication PMC5308256 (2017):
# Assays:
# [1] = tested on: A12-MB-A12 (FAM/DABCYL-labeled) (DNA, hairpin) AAAAAAAAAAAACATCATAGTCGAGTGTCCAGGGAAAAAAAAAAAA; experiment: FAM/DABCYL fluorescence quenching titration; conditions: 10 mM HEPES pH 7.3; 10 nM DNA; saturation at 0.6 μM coralyne
# [2] = tested on: label-free A12-MB-A12 (DNA, hairpin) AAAAAAAAAAAACATCATAGTCGAGTGTCCAGGGAAAAAAAAAAAA; experiment: SYBR Green I fluorescence enhancement on folding; conditions: 10 mM HEPES pH 7.3; 0.5 μM DNA; 160 nM SYBR Green I
# [3] = tested on: FAM-A40-DABCYL (A40) (DNA, hairpin) AAAAAAAAAAAAAAAAAAAAAAAAAAAAAAAAAAAAAAAA; experiment: FAM/DABCYL fluorescence quenching titration; conditions: 10 mM HEPES pH 7.3; 10 nM DNA; saturation at 0.6 μM coralyne
smiles,measurement,setting,value
COc1cc2cc3c4cc(OC)c(OC)cc4cc[n+]3c(C)c2cc1OC,Kd,[1],500 nM
same,binding,[2],yes
same,binding,[3],yes
